Results as given in patent EP4748840A1, “IMIDAZO[1,2-A]PYRIDINE TYPE IRAK DEGRADATION AGENT AND USE THEREOF” (TAINUORUI (TIANJIN) BIOTECHNOLOGY CO., LTD, priority 2023, dated 2025).

What was measured:
IRAK4 = target: T1, IRAK4 (Homo sapiens, UniProt Q9NWZ3); assay: HiBiT-based intracellular degradation assay of THP1-HIBiT-IRAK4 cells; assay type: cell-based; conditions: half-maximal degradation concentration of IRAK4 protein, 24 h incubation
T1 construct: expressed in transfected cells; host or cells: THP1 (THP1-HIBiT-IRAK4 engineered line)
T1 sequence (Q9NWZ3 1-460): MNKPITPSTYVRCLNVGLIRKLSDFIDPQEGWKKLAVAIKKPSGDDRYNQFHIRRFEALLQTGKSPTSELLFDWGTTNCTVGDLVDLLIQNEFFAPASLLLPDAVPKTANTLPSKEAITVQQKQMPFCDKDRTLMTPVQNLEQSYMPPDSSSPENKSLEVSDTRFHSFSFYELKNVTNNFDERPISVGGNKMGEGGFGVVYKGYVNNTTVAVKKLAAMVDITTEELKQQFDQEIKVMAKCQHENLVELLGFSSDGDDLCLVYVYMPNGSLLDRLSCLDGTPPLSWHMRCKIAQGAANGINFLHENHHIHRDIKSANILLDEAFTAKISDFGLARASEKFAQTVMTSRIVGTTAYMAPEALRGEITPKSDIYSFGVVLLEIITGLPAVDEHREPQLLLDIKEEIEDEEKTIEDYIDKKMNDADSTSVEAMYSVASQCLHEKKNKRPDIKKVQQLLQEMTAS
Procedure: HiBiT-based intracellular degradation assay of THP1-HIBiT-IRAK4 cells
THP1-HIBiT-IRAK4 cells were cultured in RPMI 1640 medium supplemented with 10% fetal bovine serum (FBS) and 1% penicillin-streptomycin (PS) (37°C and 5% CO2). The THP1-HIBiT-IRAK4 cells were inoculated in a 384-well plate at 5000 cells/40 µL/well. Compound solutions with different concentrations were added at 40 nL/well and incubated for 24 h at 37°C in 5% CO2. HiBiT lysis detection reagents were added to the wells, the plate was incubated for 30 min at room temperature, and luminescence values were read on Envision. [formula]
The DC50 (half-maximal degradation concentration) of each compound was obtained using XLfit software and the following nonlinear fitting equation: Y = bottom + (top−bottom)/(1+10^(∧)((LogDC50−X)×Hillslope)). [formula]
X denotes a log value of the compound concentration.
Y denotes the degradation rate.
Table 1 lists the results of DC50 values of IRAK4 protein degradation. […]

[1] = Liver microsomal stability assay (human); assay type: in vitro ADME; conditions: Human liver microsomes 0.5 mg/mL, NADPH and UDPGA, 1 µM compound
Procedure: (§1) Liver microsomal stability assay
(§2) Microsomes were stored in a -80°C refrigerator, thawed in a 37°C water bath before use, and placed on ice after thawing. All other reagents were purchased from local suppliers.
(§3) In step 1, a reaction system was configured as follows:
(§4) In step 2, 40 µL of 10 mM NADPH solution and 40 µL of 20 mM UDPGA solution were added to the above reaction system, where the final concentrations of NADPH and UDPGA were 1 mM and 2 mM, respectively. 80 µL of ultrapure water was used as negative control to replace the NADPH and UDPGA solutions. The reaction system was pre-incubated for 10 min in a 37°C water bath. […]
(§5) All data calculations were performed using Microsoft Excel software. Peak areas were determined from extracted ion chromatograms and used for calculating the remaining percentage at each time point.
(§6) The remaining percentage was calculated by the following formula: remaining percentage (%) = (peakarearatiotime point/peakarearatio0 min) × 100. […]
(§7) An elimination rate constant (k) was determined through linear fitting of a natural logarithm of the remaining percentage of a parent drug versus time.
(§8) The half-life t1/2 was calculated from the elimination rate constant: t1/2 = 0.693/k.
(§9) The in vitro intrinsic clearance (µL/min/mg) was calculated by the following formula: invitroCLint = kV/N. [formula] […]

[2] = Liver microsomal stability assay (monkey); assay type: in vitro ADME; conditions: Monkey liver microsomes 0.5 mg/mL, NADPH and UDPGA, 1 µM compound
Procedure: as §1, §2, §3, §4, §5, §6, §7, §8, §9

[3] = Liver microsomal stability assay (dog); assay type: in vitro ADME; conditions: Dog liver microsomes 0.5 mg/mL, NADPH and UDPGA, 1 µM compound
Procedure: as §1, §2, §3, §4, §5, §6, §7, §8, §9

[4] = Liver microsomal stability assay (rat); assay type: in vitro ADME; conditions: Rat liver microsomes 0.5 mg/mL, NADPH and UDPGA, 1 µM compound
Procedure: as §1, §2, §3, §4, §5, §6, §7, §8, §9

[5] = Liver microsomal stability assay (mouse); assay type: in vitro ADME; conditions: Mouse liver microsomes 0.5 mg/mL, NADPH and UDPGA, 1 µM compound
Procedure: as §1, §2, §3, §4, §5, §6, §7, §8, §9

[6] = In vivo pharmacokinetic study in mice; conditions: male CD1 mice
Procedure: In vivo pharmacokinetic study
The pharmacokinetic behaviors of Example 1 and Example 15 in mice were studied using the following experimental protocol to evaluate their pharmacokinetic characteristics.
The mice had free access to food and water before the test.
(§10) Approximately 0.03 mL of venous blood was collected from the dorsal metatarsal vein of each mouse separately after 0.033 h, 0.083 h, 0.25 h, 0.5 h, 1 h, 2 h, 4 h, 8 h, and 24 h since intravenous injection. The blood was placed in an EDTA-K2 tube and centrifuged for 5 min at 4000 g and 4°C. The plasma was separated. The concentration of the compound in the plasma was determined through liquid chromatography-tandem mass spectrometry.
as §10, with “after” for “after 0.033 h,”, “oral administration.” for “intravenous injection.”

[7] = mouse, plasma, Intravenous Injection (2 mg/kg)

For `CC(C)(O)c1cc2nc(C3CCN(CC4CCN(c5cc6c(cc5F)C(=O)N(C5CCC(=O)NC5=O)C6=O)CC4)CC3)cn2cc1NC(=O)c1cccc(C(F)(F)F)n1` (centres unmarked) [Example 15, N-(2-(1-((1-(2-(2,6-dioxopiperidin-3-yl)-6-fluoro-1,3-dioxoisoindolin-5-yl)piperidin-4-yl)methyl)piperidin-4-yl)-7-(2-hydroxypropan-2-yl)imidazo[1,2-a]pyridin-6-yl)-6-(trifluoromethyl)pyridine-2-carboxamide], which DC50 (IRAK4) is on record?
The DC50 was 1.62 nM.

And the half-life at 1 µM [1]?
Its half-life at 1 µM is 6.68 h.

And the microsomal CLint at 1 µM [1]?
The microsomal CLint at 1 µM was 3.46 µL/min/mg.

What about the half-life at 1 µM [2] of the same compound?
Its half-life at 1 µM is 3.2 h.

What about the microsomal CLint at 1 µM [2] of the same compound?
The microsomal CLint at 1 µM was 7.22 µL/min/mg.

What about the half-life at 1 µM [3] of the same compound?
Its half-life at 1 µM is 4.33 h.

And the microsomal CLint at 1 µM [3]?
The microsomal CLint at 1 µM was 5.34 µL/min/mg.

What about the half-life at 1 µM [4] of the same compound?
The half-life at 1 µM was 2.23 h.

What about the microsomal CLint at 1 µM [4] of the same compound?
The microsomal CLint at 1 µM was 10.4 µL/min/mg.

And the half-life at 1 µM [5]?
Its half-life at 1 µM is 2.39 h.

What about the microsomal CLint at 1 µM [5] of the same compound?
Its microsomal CLint at 1 µM is 9.67 µL/min/mg.

And the F ([6]; oral bioavailability, Oral Administration (20 mg/kg) vs Intravenous Injection (2 mg/kg))?
The F was 61.7%.

And the clearance [6, 7]?
Its clearance is 37.2 mL/min/kg.

What about the half-life [6, 7] of the same compound?
Its half-life is 8.05 h.

What about the half-life ([6]; mouse, plasma, Oral Administration (20 mg/kg)) of the same compound?
The half-life was 8.01 h.

What about the AUC(0-t) ([6]; mouse, Intravenous Injection (2 mg/kg), plasma) of the same compound?
Its AUC(0-t) is 870 ng·h/mL.

And the AUC(0-t) ([6]; mouse, Oral Administration (20 mg/kg), plasma)?
The AUC(0-t) was 4760 ng·h/mL.
